Measurements published in patent publication US8481576B2 (Abbott GmbH & Co. KG, priority 2004, dated 2013).
Counter-ions that a name gives are not always drawn.

Target: T1, h5-HT5A receptor (Homo sapiens, UniProt P47898)
T1 construct: expressed in transfected cells; host or cells: HEK293
Experiment: [3H]5-CT binding assay h5-HT5A
Conditions: membranes from HEK293 cells expressing h5-HT5A, 2.5 nM [3H]5-CT; read-out: Binding affinity 5-HT5A (Ki)
Summary of the method: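 Membranes from HEK293 cells stably expressing h5-HT5A incubated with 2.5 nM [3H]5-CT and compound in 100 mM Tris-HCl pH 7.7, 1 mM EDTA, 75 min at 30° C. Nonspecific binding with 10 μM methiothepine; filtration and scintillation counting give Ki or IC50.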

T1 sequence (P47898 whole entry): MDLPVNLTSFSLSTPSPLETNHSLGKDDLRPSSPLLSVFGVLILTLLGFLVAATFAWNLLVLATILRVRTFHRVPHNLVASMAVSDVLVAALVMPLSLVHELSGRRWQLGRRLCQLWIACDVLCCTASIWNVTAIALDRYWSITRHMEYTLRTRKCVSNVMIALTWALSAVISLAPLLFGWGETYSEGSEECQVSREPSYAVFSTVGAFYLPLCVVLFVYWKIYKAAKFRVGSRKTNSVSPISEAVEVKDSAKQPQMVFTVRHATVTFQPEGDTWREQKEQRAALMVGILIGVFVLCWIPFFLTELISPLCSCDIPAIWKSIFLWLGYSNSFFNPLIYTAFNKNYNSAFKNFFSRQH

Structure (SMILES) | Ki [nM]
COc1ccccc1C(=O)NC(=N)Nc1nccs1 [Example 20, N-[Imino(1,3-thiazole-2-ylamino)methyl]-2-methoxybenzamide] | > 500
COc1ccccc1CNC(=N)Nc1n[nH]c2ccccc12 [Example 179, N-1H-indazole-3-yl-N′-(2-methoxybenzyl)guanidine acetate] | < 50
COc1cccc(OC)c1CNC(=N)Nc1nc(-c2cc3ccccc3o2)cs1 [Example 67, N-[4-(1-benzofuran-2-yl)-1,3-thiazole-2-yl]-N′-(2,6-dimethoxybenzyl)guanidine hydrobromide] | < 50
COc1cccc(Cl)c1CNC(=N)Nc1nc(-c2ccccc2)cs1 [Example 132, N-(2-chloro-6-methoxybenzyl)-N′-(4-phenyl-1,3-thiazole-2-yl)guanidine] | < 50
COc1cccc(OC)c1CNC(=N)Nc1nc(-c2ccccc2C(F)(F)F)cs1 [Example 84, N-(2,6-dimethoxybenzyl)-N′-{4-[2-(trifluoromethyl)phenyl]-1,3-thiazole-2-yl}guanidine hydrobromide] | < 50
C=CCNC(=O)c1csc(NC(=N)NCc2c(OC)cccc2OC)n1 [Example 193, N-allyl-2-{[[(2,6-dimethoxybenzyl)amino](imino)methyl]amino}-1,3-thiazole-4-carboxamide] | < 50
COc1cccc(OC)c1CNC(=N)Nc1nc(-c2ccc(OC(F)(F)F)cc2)cs1 [Example 64, N-(2,6-dimethoxybenzyl)-N′-{4-[4-(trifluoromethoxy)phenyl]-1,3-thiazole-2-yl}guanidine hydrobromide] | < 50
COc1cccc(OC)c1CNC(=N)Nc1nc2ccccc2s1 [Example 27, N-1,3-benzothiazole-2-yl-N′-(2,6-dimethoxybenzypguanidine (2E)-But-2-endioate] | < 50
COc1cccc(OC)c1CNC(=N)Nc1nc(-c2ncccn2)cs1 [Example 122, N-(2,6-dimethoxybenzyl)-N′-(4-pyrimidine-2-yl-1,3-thiazole-2-yl)guanidine hydrobromide] | < 50
COc1cccc(OC)c1CNC(=N)Nc1nc(C(F)(F)F)cs1 [Example 53, N-(2,6-dimethoxybenzyl)-N′-[4-(trifluoromethyl)-1,3-thiazole-2-yl]guanidine] | 50 to 500
COc1cccc(OC)c1CNC(=N)Nc1nc(-c2ccco2)cs1 [Example 117, N-(2,6-dimethoxybenzyl)-N′-[4-(2-furyl)-1,3-thiazole-2-yl]guanidine hydrobromide] | < 50
COc1cccc(OC)c1CNC(=N)Nc1nc(-c2cc(Cl)ccc2Cl)cs1 [Example 21, N-[4-(2,5-dichlorophenyl)-1,3-thiazole-2-yl]-N′-(2,6-dimethoxybenzyl)guanidine hydrobromide] | < 50
COc1cccc(OC)c1CNC(=N)Nc1nc(-c2ccc(F)cc2)cs1 [Example 56, N-(2,6-dimethoxybenzyl)-N′-[4-(4-fluorophenyl)-1,3-thiazole-2-yl]guanidine] | < 50
COc1cccc(OC)c1CNC(=N)Nc1nc(-c2ccsc2)cs1 [Example 72, N-(2,6-dimethoxybenzyl)-N′-[4-(3-thienyl)-1,3-thiazole-2-yl]guanidine acetate] | < 50
COc1cccc(OC)c1CNC(=N)Nc1nc(-c2ccc3c(c2)CCO3)cs1 [Example 115, N-[4-(2,3-dihydro-1-benzofuran-5-yl)-1,3-thiazole-2-yl]-N′-(2,6-dimethoxybenzyl)guanidine] | < 50
COc1ccccc1CNC(=N)Nc1nc2ccc(C)cc2s1 [Example 168, N-(2-methoxybenzyl)-N′-(6-methyl-1,3-benzothiazole-2-yl)guanidine fumarate] | 50 to 500

Continued, values first:

Ki [nM] | Structure (SMILES)
> 500 | CNC(=Nc1nccs1)NCc1ccccc1OC [Example 24, N-(2-methoxybenzyl)-N′-methyl-N″-1,3-thiazole-2-ylguanidine (2E)-But-2-endioate]
< 50 | COc1cccc(OC)c1CNC(=N)Nc1nc(-c2ccccc2)co1 [Example 199, N-(2,6-dimethoxybenzyl)-N′-(4-phenyl-1,3-oxazole-2-yl)guanidine]
> 500 | N=C(NCc1ccccc1Cl)Nc1nccs1 [Example 7, N-(2-chlorobenzyl)-N′-1,3-thiazole-2-ylguanidine hydrochloride]
50 to 500 | COc1ccccc1CNC(=N)Nc1nc(-c2ccccc2)cs1 [Example 31, N-(2-methoxybenzyl)-N′-(4-phenyl-1,3-thiazole-2-yl)guanidine]
< 50 | COc1cccc(OC)c1CNC(=N)Nc1cc(-c2ccc(Cl)cc2)[nH]n1 [Example 212, N-[5-(4-chlorophenyl)-1H-pyrazole-3-yl]-N′-(2,6-dimethoxybenzyl)guanidine]
< 50 | COc1cccc(OC)c1CNC(=N)Nc1nc2ccc(C)cc2s1 [Example 169, N-(2,6-dimethoxybenzyl)-N′-(6-methyl-1,3-benzothiazole-2-yl)guanidine fumarate]
< 50 | COc1cccc(OC)c1CNC(=N)Nc1nc(C2CCCN2)cs1 (centres unmarked) [Example 147, N-(2,6-dimethoxybenzyl)-N′-(4-pyrrolidine-2-yl-1,3-thiazole-2-yl)guanidine hydrochloride]
< 50 | COc1ccccc1CNC(=N)Nc1nc(-c2ccc(OC(F)(F)F)cc2)cs1 [Example 100, N-(2-methoxybenzyl)-N′-{4-[4-(trifluoromethoxy)phenyl]-1,3-thiazole-2-yl}guanidine]
< 50 | COc1cccc(Cl)c1CNC(=N)Nc1nc(-c2ncccn2)cs1 [Example 135, N-(2-chloro-6-methoxybenzyl)-N′-(4-pyrimidine-2-yl-1,3-thiazole-2-yl)guanidine]
< 50 | COc1cccc(OC)c1CNC(=N)Nc1nc(-c2ccc(F)cc2O)cs1 [Example 142, N-(2,6-dimethoxybenzyl)-N′-[4-(4-fluoro-2-hydroxyphenyl)-1,3-thiazole-2-yl]guanidine]
< 50 | COc1cccc(OC)c1CNC(=N)Nc1nc(-c2cc(Cl)cs2)cs1 [Example 124, N-[4-(4-chloro-2-thienyl)-1,3-thiazole-2-yl]-N′-(2,6-dimethoxybenzyl)guanidine]
< 50 | COc1cccc(OC)c1CNC(=N)Nc1nc(C(c2ccccc2)c2ccccc2)cs1 [Example 76, N-(2,6-dimethoxybenzyl)-N′-[4-(diphenylmethyl)-1,3-thiazole-2-yl]guanidine hydrobromide]
< 50 | COc1cccc(OC)c1CNC(=N)Nc1nc2c(s1)CN(S(=O)(=O)c1ccccc1)CC2 [Example 225, N-(2,6-dimethoxybenzyl)-N′-[5-(phenylsulfonyl)-4,5,6,7-tetrahydro[1,3]thiazolo[5,4-c]pyridine-2-yl]guanidine]
> 500 | COc1cccc(OC)c1CNC(=N)Nc1n[nH]cc1-c1ccccc1 [Example 218, N-(2,6-dimethoxybenzyl)-N′-(4-phenyl-1H-pyrazole-3-yl)guanidine]
< 50 | COc1cccc(OC)c1CNC(=N)Nc1nc(-c2c(Cl)cccc2Cl)cs1 [Example 119, N-[4-(2,6-dichlorophenyl)-1,3-thiazole-2-yl]-N′-(2,6-dimethoxybenzyl)guanidine]
< 50 | COc1cccc(OC)c1CNC(=N)Nc1nc(-c2ccc(C#N)cc2)cs1 [Example 60, N-[4-(4-cyanophenyl)-1,3-thiazole-2-yl]-N′-(2,6-dimethoxybenzyl)guanidine]
